Literature values, collected in article PMC4358631 (Journal of Medicinal Chemistry, 2014).

Biological target: α3β4 nAChR (Rattus norvegicus, UniProt P04757+P12392)
Conditions: compounds bind to the central lumen of the receptor

Chain of α3β4 nAChR (P04757 26-499): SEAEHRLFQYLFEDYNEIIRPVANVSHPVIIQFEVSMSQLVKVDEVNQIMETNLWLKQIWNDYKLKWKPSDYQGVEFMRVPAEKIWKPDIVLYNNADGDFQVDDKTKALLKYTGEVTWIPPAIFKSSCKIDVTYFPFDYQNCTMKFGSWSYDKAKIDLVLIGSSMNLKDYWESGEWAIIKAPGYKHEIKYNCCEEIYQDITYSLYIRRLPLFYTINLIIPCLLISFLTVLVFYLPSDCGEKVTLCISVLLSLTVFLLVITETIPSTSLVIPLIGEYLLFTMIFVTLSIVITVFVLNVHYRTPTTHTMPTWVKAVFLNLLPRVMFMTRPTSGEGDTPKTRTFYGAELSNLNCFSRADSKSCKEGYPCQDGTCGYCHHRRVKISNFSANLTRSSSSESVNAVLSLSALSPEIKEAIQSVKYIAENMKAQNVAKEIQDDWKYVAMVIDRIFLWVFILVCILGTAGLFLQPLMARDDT
Chain of α3β4 nAChR (P12392 22-495 limits assumed): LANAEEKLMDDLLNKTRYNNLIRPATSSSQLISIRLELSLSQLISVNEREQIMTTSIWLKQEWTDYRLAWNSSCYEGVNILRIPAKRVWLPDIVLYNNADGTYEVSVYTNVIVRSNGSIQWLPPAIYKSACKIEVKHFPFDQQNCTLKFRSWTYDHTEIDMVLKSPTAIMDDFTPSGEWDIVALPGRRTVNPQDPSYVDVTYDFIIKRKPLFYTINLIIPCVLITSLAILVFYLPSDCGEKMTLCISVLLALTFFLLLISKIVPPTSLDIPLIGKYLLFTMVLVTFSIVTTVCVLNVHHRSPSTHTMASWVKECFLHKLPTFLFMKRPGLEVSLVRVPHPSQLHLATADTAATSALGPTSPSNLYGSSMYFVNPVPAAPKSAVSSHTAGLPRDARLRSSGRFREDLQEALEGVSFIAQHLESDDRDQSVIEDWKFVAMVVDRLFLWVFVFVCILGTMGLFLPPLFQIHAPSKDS

| Compound | inhibition of [3H]epibatidine binding |
| --- | --- |
| COCC[C@H]1CC2CN3CCc4c([nH]c5ccccc45)[C@](C(=O)OC)(C2)[C@H]13 [18-MC, 18-methoxycoronaridine] | do not inhibit |
| CNC1(C)C2CCC(C2)C1(C)C (centres unmarked) [mecamylamine] | do not inhibit |
